Results taken from ChEMBL document CHEMBL1125738, “A ring-enlarged oxetanocin A analogue as an inhibitor of HIV infectivity” (1991).

System: Human immunodeficiency virus 1
Experiment: Cytopathogenic effect was evaluated against Human immunovirus-1 (HIV-1).
Assay type: functional

Structure (SMILES)	Protective dose [µM]
Nc1ncnc2c1ncn2[C@@H]1O[C@H](CO)[C@H]1CO	100
Nc1ncnc2c1ncn2[C@H]1C[C@H](CO)[C@@H](CO)O1	10
